“And” between values parts separate entries of the source, which are not always exact repeats. Equal entries are not always repeated. Where two headings read alike, the source gives them in different places.
How the values were obtained:
LogD = conditions: pH 7.4
[1] = Permeability Papp (AB) MDR1/MDCKII; conditions: In vitro MDR1-MDCKII permeability, mean
[2] = Hepatic microsomal stability, MLM; type: in vitro ADME
[3] = In vitro kinetic solubility; conditions: In vitro kinetic solubility, ph 7.4
[4] = Hepatic microsomal stability, HLM; type: in vitro ADME, human; conditions: In vitro human liver microsomal stability
SARS-CoV-2 nsp3-mac1 [5] = biological target: T1, SARS-CoV-2 nsp3-mac1 (Severe acute respiratory syndrome coronavirus 2, UniProt P0DTD1); test: biochemical; type: biochemical; conditions: SARS-CoV-2 nsp3 macrodomain TR-FRET single point
SARS-CoV-2 nsp3-mac1 [6] = biological target: T1, SARS-CoV-2 nsp3-mac1; test: biochemical; parameters: SARS-CoV-2 nsp3 macrodomain TR-FRET single point, per cent inhibition, n=2
[7] = In vitro mouse liver microsomal stability
[8] = read-out: perc_inhibition_mean, batch_name=ASAP-0000289-001
[9] = read-out: perc_inhibition_mean, batch_name=ASAP-0000363-001
[10] = read-out: perc_inhibition_mean, batch_name=ASAP-0000456-001
[11] = read-out: perc_inhibition_mean, batch_name=ASAP-0000268-001
[12] = read-out: perc_inhibition_mean, batch_name=ASAP-0000359-001
[13] = read-out: perc_inhibition_mean, batch_name=ASAP-0000307-001

O=C(O)C[C@H](NC(=O)c1ncnc2[nH]ccc12)c1ccc(Br)cc1 [ASAP-0000136]
logd (LogD; In vitro LogD): 0.22

Cn1ncc(-c2cc3c(N[C@H](c4ccc5c(n4)OCCO5)C(C)(C)C)ncnc3[nH]2)c1C#N (racemic) [ASAP-0008645]
papp_a_to_b_mean ([1]; A to B): 9.87 ×10⁻⁶ cm/s and 13.5 ×10⁻⁶ cm/s | perc_recovery_a_to_b_mean ([1]; recovery A to B): 73.4% and 58.4% | clint [2, 7]: 188.0 µL/min/mg and 209.0 µL/min/mg | perc_remaining [2, 7]: 5.0% and 4.0% | t_half [2, 7]: 8.9 min and 8.0 min | perc_remaining_no_cofactor ([2]; In vitro mouse liver microsomal stability, no cofactor): 106.0% | perc_remaining_no_cofactor ([2]; In vitro mouse liver microsomal stability; no cofactor): 101.0% | solubility_mean [3]: 25 µM and 24 µM | clint [4]: 70.0 µL/min/mg and 81.0 µL/min/mg | perc_remaining [4]: 30.0% and 27.0% | t_half [4]: 23.9 min and 20.6 min | perc_remaining_no_cofactor ([4]; no cofactor): 91.0% and 108.0%

CC(C)C(Nc1ncnc2[nH]ccc12)c1ccc2c(n1)OCCO2 (stereo not drawn) [ASAP-0008270]
logd (LogD): 2.8

FC(F)(F)c1ccccc1[C@@H]1CN(c2ncnc3[nH]ccc23)CCO1 [ASAP-0000030]
perc_inhibition_mean (SARS-CoV-2 nsp3-mac1 [5]; concentration 50.0 uM): -5.311% | inhibition at 50 µM (SARS-CoV-2 nsp3-mac1 [6]; read-out: perc_inhibition_mean, batch_name=ASAP-0000030-001): -5.31%

c1nc(N2CCC[C@@H](c3nc4c(s3)CCC4)C2)c2c[nH]nc2n1 [ASAP-0000055]
perc_inhibition_mean (SARS-CoV-2 nsp3-mac1 [5]; concentration 50.0 uM): 3.826% | inhibition at 50 µM (SARS-CoV-2 nsp3-mac1 [6]; read-out: perc_inhibition_mean, batch_name=ASAP-0000055-001): 3.83%

C[C@H](NC(=O)c1ccc(NC(=O)Nc2ccccc2)cc1)[C@@H]1CCCO1 [ASAP-0000289]
perc_inhibition_mean (SARS-CoV-2 nsp3-mac1 [5]; concentration 49.75 uM, n=2): -4.279% | perc_inhibition_mean (SARS-CoV-2 nsp3-mac1 [5]; concentration 99.5 uM, n=2): -4.858% | inhibition at 49.75 µM (SARS-CoV-2 nsp3-mac1 [6]; [8]): -4.28% | inhibition at 99.5 µM (SARS-CoV-2 nsp3-mac1 [6]; [8]): -4.86%

Oc1ccccc1CNc1ncnc2cccnc12 [ASAP-0000363]
perc_inhibition_mean (SARS-CoV-2 nsp3-mac1 [5]; concentration 49.75 uM): -1.837% | perc_inhibition_mean (SARS-CoV-2 nsp3-mac1 [5]; concentration 99.5 uM): -0.535% | inhibition at 49.75 µM (SARS-CoV-2 nsp3-mac1 [6]; [9]): -1.84% | inhibition at 99.5 µM (SARS-CoV-2 nsp3-mac1 [6]; [9]): -0.535%

O=C(O)c1cnc(C(=O)N2CCC(c3ccn4ncc(C(=O)N5CCCCC5)c4c3)CC2)cn1 [ASAP-0000456]
perc_inhibition_mean (SARS-CoV-2 nsp3-mac1 [5]; concentration 49.75 uM): 27.543% | perc_inhibition_mean (SARS-CoV-2 nsp3-mac1 [5]; concentration 99.5 uM): 46.435% | inhibition at 49.75 µM (SARS-CoV-2 nsp3-mac1 [6]; [10]): 27.5% | inhibition at 99.5 µM (SARS-CoV-2 nsp3-mac1 [6]; [10]): 46.4%

Cc1nc(NC(=O)c2ccnn2C(C)C)c2cc[nH]c2n1 [ASAP-0000268]
perc_inhibition_mean (SARS-CoV-2 nsp3-mac1 [5]; concentration 50.0 uM, n=2): -2.642% | perc_inhibition_mean (SARS-CoV-2 nsp3-mac1 [5]; concentration 100.0 uM, n=2): -4.346% | inhibition at 50 µM (SARS-CoV-2 nsp3-mac1 [6]; [11]): -2.64% | inhibition at 100 µM (SARS-CoV-2 nsp3-mac1 [6]; [11]): -4.35%

O=C(Cc1ccns1)Nc1ncnc2[nH]cnc12 [ASAP-0000359]
perc_inhibition_mean (SARS-CoV-2 nsp3-mac1 [5]; concentration 49.75 uM): -9.501% | perc_inhibition_mean (SARS-CoV-2 nsp3-mac1 [5]; concentration 99.5 uM): -3.24% | inhibition at 49.75 µM (SARS-CoV-2 nsp3-mac1 [6]; [12]): -9.5% | inhibition at 99.5 µM (SARS-CoV-2 nsp3-mac1 [6]; [12]): -3.24%

Cn1cc(NC(=O)c2ccc(NC(=O)Nc3ccccc3)cc2)c(C#N)n1 [ASAP-0000307]
perc_inhibition_mean (SARS-CoV-2 nsp3-mac1 [5]; concentration 49.75 uM, n=2): 2.492% | perc_inhibition_mean (SARS-CoV-2 nsp3-mac1 [5]; concentration 99.5 uM, n=2): -0.539% | inhibition at 49.75 µM (SARS-CoV-2 nsp3-mac1 [6]; [13]): 2.49% | inhibition at 99.5 µM (SARS-CoV-2 nsp3-mac1 [6]; [13]): -0.539%

— doi:10.1101/2024.08.19.608619, “Discovery of potent SARS-CoV-2 nsp3 macrodomain inhibitors uncovers lack of translation to cellular antiviral response” (bioRxiv, 2024)
